Assay results from PMC4768645, “Electronic Olfactory Sensor Based on A. mellifera Odorant‐Binding Protein 14 on a Reduced Graphene Oxide Field‐Effect Transistor” (Angewandte Chemie (International Ed. in English), 2015).
Like-named read-outs stand apart in the source and are kept apart here. Values belong to the molecule of their own block, whether it stands above or below them.

Target: T1, odorant-binding protein 14 (OBP14) (Apis mellifera, UniProt A0A8U0WQC3)
T1 construct: recombinant OBP14, cloning, expression and purification in supplement; immobilised via PBSE linker on reduced graphene oxide FET gate
T1 sequence (A0A8U0WQC3 17-135): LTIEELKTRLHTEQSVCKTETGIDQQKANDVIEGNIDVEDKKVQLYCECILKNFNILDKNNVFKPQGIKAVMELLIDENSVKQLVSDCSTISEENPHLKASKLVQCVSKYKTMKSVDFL
Test: rGO-FET biosensor, real-time source-drain current, global Langmuir analysis
Source text: rGO-FET biosensor, real-time source-drain current, global Langmuir analysis on odorant-binding protein 14 (OBP14)

Kd (read-out: Geraniol): 3300 µM
Compound: CC(C)=CCC/C(C)=C/CO [Geraniol]

Kd (read-out: Methyl vanillate): 20 µM
Compound: COC(=O)c1ccc(O)c(OC)c1 [Methyl vanillate]

Kd (read-out: Methyl eugenol): 1400 µM
Compound: C=CCc1ccc(OC)c(OC)c1 [Methyl eugenol]

Kd (read-out: Eugenol): 40 µM
Compound: C=CCc1ccc(O)c(OC)c1 [Eugenol]

Kd (read-out: Homovanillic acid): 4 µM
Compound: COc1cc(CC(=O)O)ccc1O [Homovanillic acid]

Kd (read-out: Citral): 800 µM
Compound: CC(C)=CCCC(C)=CC=O [Citral]
